Measurements: US9334280B2, “Synthetic rigidin analogues as anticancer agents, salts, solvates and prodrugs thereof, and method of producing same” (New Mexico Technical Research Foundation, priority 2012, dated 2016)
Like-named read-outs stand apart in the source and are kept apart here.

Experiments:
[1] = tested on: HeLa cervical adenocarcinoma cells; test: MTT antiproliferative assay, HeLa; type: cell-based; settings: Homo sapiens
Description: (§1) Human T-cell leukemia cell line Jurkat (ATCC TIB-152, E6-1 clone) was cultured in RPMI-1640 (Invitrogen) supplemented with 10% FBS (Invitrogen), 100 mg/L penicillin G, 100 mg/L streptomycin, 1.0 mM sodium pyruvate, 1.5 g/L sodium bicarbonate, and 4.5 g/L glucose (all from Sigma). Human cervical cancer cell line HeLa (ATCC S3) was cultured in DMEM (Invitrogen) supplemented with 10% FBS, 100 mg/L penicillin G, and 100 mg/L streptomycin. MCF-7 (human mammary carcinoma) cells were cultured in DMEM supplemented with 1.0 mM sodium pyruvate, 1% GlutaMax™-1 (Invitrogen), 100 μg/mL penicillin, 100 μg/mL streptomycin, and 10% FBS. Human uterine sarcoma MES-SA and MES-SA/Dx5 cells were cultured in RPMI-1640 medium supplemented with 10% FBS, 100 mg/L penicillin G and 100 mg/L streptomycin. All cells were incubated at 37° C. in a humidified atmosphere with 5% CO2. The other cell lines were maintained in a similar fashion as previously described.
(§2) To evaluate antiproliferative properties of the compounds of Formula I, mitochondrial dehydrogenase activities were measured using the MTT assay. The cell lines were prepared by trypsinizing and seeding […] cells per well into microplates. All compounds were reconstituted in dimethyl sulfoxide (DMSO) at a concentration of either 100 mM or 25 mM prior to treatment. The cells were grown for 24 hrs before treatment at concentrations ranging from 0.004 to 100 microM and incubated for 48 hrs in 200 microL media. 20 microL of MTT reagent in serum free medium (5 mg/mL) was added to each well and incubated further for 2 hrs. Media was removed and the resulting formazan crystals were re-solubilized in 100 microL of DMSO and the optical density (OD) was measured using a Thermomax Molecular Device plate reader at a wavelength of 490 nm. The experiments were performed in quadruplicate and repeated at least twice for each compound per cell line. Cells treated with 0.1% DMSO were used as a negative control, while phenyl arsine oxide (PAO) was used as a positive killing control.
(§3) Human cancer cell lines were obtained from the American Type Culture Collection (ATCC, Manassas, Va., USA), the European Collection of Cell Culture (ECACC, Salisbury, UK) and the Deutsche Sammlung von Mikroorganismen and Zellkulturen (DSMZ, Braunschweig, Germany). Human cervical adenocarcinoma HeLa cells were cultured in DMEM supplemented with 10% fetal bovine serum (FBS). Human mammary carcinoma MCF-7 cells were cultured in RPMI supplemented with 10% FBS. The U87 and U373 cells were cultured in DMEM culture medium (Lonza code 12-136F, Vervier, Belgium), while the SKMEL-28 and A549 cells were cultured in RPMI culture medium (Lonza; code 12-115F) supplemented with 10% heat-inactivated FBS (Lonza, FBS South America code DE14-801F). […] All cell lines were cultured in T25 flasks, maintained and grown at 37° C., 95% humidity, 5% CO2.
(§4) To evaluate antiproliferative properties of the synthesized compounds, the MTT assay was used. The cell lines were assessed by trypsinizing each cell line and seeding 4×10^3 cells per well into 96-well plates. All compounds were dissolved in DMSO at a concentration of either 100 mM or 50 mM prior to cell treatment. The cells were grown for 24 h and then treated with compounds at concentrations ranging from 0.04 to 100 μM and incubated for 48 h in 200 μL media. 20 μL of MTT reagent in serum free medium (5 mg/mL) was added to each well and incubated further for 2 h. Media was removed, and the resulting formazan crystals were re-solubilized in 200 μL of DMSO. A490 was measured using a Thermomax Molecular Device plate reader. The experiments were performed in quadruplicate and repeated at least twice for each compound per cell line. Cells treated with 0.1% DMSO were used as a control, and 1 μM phenyl arsine oxide (PAO) was used as a positive killing control.

[2] = tested on: MCF-7 mammary gland adenocarcinoma cells; test: MTT antiproliferative assay, MCF-7; type: cell-based; settings: Homo sapiens
Description: as §1, §2, §3, §4

[3] = Table 1, 48 h treatment, MTT, ± SD, read-out: GI50 in vitro Values, HeLa
[4] = MCF7, Table 1, 48 h treatment, MTT, ± SD, read-out: GI50 in vitro Values, MCF-7
[5] = Table 5, 48 h, MTT, ± SD, read-out: cell viability GI50, HeLa
[6] = MCF7, Table 5, 48 h, MTT, ± SD, read-out: cell viability GI50, MCF-7

| Structure (SMILES) | GI50 [1, 3] | GI50 [2, 4] | GI50 [1, 5] | GI50 [2, 6] | further results |
| --- | --- | --- | --- | --- | --- |
| COc1cc(-c2c(C(=O)c3ccccc3)[nH]c3[nH]cnc(=O)c23)cc(I)c1OC [Rig31, 6-Benzoyl-5-(3-iodo-4,5-dimethoxyphenyl)-1H-pyrrolo[2,3-d]pyrimidin-4(7H)-one] | 8000 ± 1000 nM | 40000 ± 4000 nM | – | – | – |
| O=C(c1ccccc1)c1[nH]c2[nH]cnc(=O)c2c1-c1cccc(Br)c1 [Rig33, 6-Benzoyl-5-(3-bromophenyl)-1H-pyrrolo[2,3-d]pyrimidin-4(7H)-one] | 130 ± 50 nM | 60 ± 20 nM | – | – | – |
| CCOC(=O)CCc1nc(=O)c2c(-c3ccccc3)c(C(=O)c3ccccc3)[nH]c2[nH]1 [Compound 10, 6-Benzoyl-2-(2-ethoxycarbonylethyl)-5-phenyl-1H-pyrrolo[2,3-d]pyrimidin-4(7H)-one] | – | – | 780 ± 50 nM | 930 ± 70 nM | – |
| O=C(c1ccccc1)c1[nH]c2[nH]cnc(=O)c2c1-c1cccc(Br)n1 [Rig30, 6-Benzoyl-5-(6-bromopyridin-2-yl)-1H-pyrrolo[2,3-d]pyrimidin-4(7H)-one] | 150 ± 50 nM | 135 ± 75 nM | – | – | – |
| O=C(c1ccccc1)c1[nH]c2[nH]cnc(=O)c2c1-c1cccc(I)c1 [Rig36, 6-Benzoyl-5-(3-iodophenyl)-1H-pyrrolo[2,3-d]pyrimidin-4(7H)-one] | 200 ± 100 nM | 150 ± 60 nM | – | – | – |
| O=C(c1ccc(O)cc1)c1[nH]c2[nH]cnc(=O)c2c1-c1ccccc1 [Rig45, 6-(4-Hydroxybenzoyl)-5-phenyl-1H-pyrrolo[2,3-d]pyrimidin-4(7H)-one] | 303 ± 5 nM | 261 ± 50 nM | – | – | – |
| COc1ccc(C(=O)c2[nH]c3[nH]cnc(=O)c3c2-c2cc(OC)c(OC)c(OC)c2)cc1 [Rig19, 6-(4-Methoxybenzoyl)-5-(3,4,5-trimethoxyphenyl)-1H-pyrrolo[2,3-d]pyrimidin-4(7H)-one] | – | – | – | – | GI50 ([1]; 48 h, read-out: GI50 in vitro Values, HeLa): > 100000 nM; GI50 ([2]; MCF7, 48 h, read-out: GI50 in vitro Values, MCF-7): 7000 ± 1000 nM |
| O=C(c1ccccc1)c1[nH]c2[nH]c(C(F)(F)F)nc(=O)c2c1-c1ccccc1 [Compound 16, 6-Benzoyl-5-phenyl-2-(trifluoromethyl)-1H-pyrrolo[2,3-d]pyrimidin-4(7H)-one] | – | – | 21500 ± 400 nM | 21100 ± 1100 nM | – |
| COc1ccc(C(=O)c2[nH]c3[nH]cnc(=O)c3c2-c2cc(Br)cc(Br)c2)cc1 [Rig10, 5-(3,5-Dibromophenyl)-6-(4-methoxybenzoyl)-1H-pyrrolo[2,3-d]pyrimidin-4(7H)-one] | 300 ± 70 nM | 110 ± 35 nM | – | – | – |
| N#Cc1cccc(-c2c(C(=O)c3ccccc3)[nH]c3[nH]cnc(=O)c23)c1 [Rig43, 3-(6-Benzoyl-4-oxo-4,7-dihydro-1H-pyrrolo[2,3-d]pyrimidin-5-yl)benzonitrile] | 187 ± 9 nM | 251 ± 17 nM | – | – | – |
| O=C(c1ccccc1)c1[nH]c2[nH]c(-c3cccnc3)nc(=O)c2c1-c1ccccc1 [Compound 4] | – | – | > 50000 nM | > 50000 nM | – |
| O=C(c1ccc(F)cc1)c1[nH]c2[nH]cnc(=O)c2c1-c1cc(Br)cc(Br)c1 [Rig13, 5-(3,5-Dibromophenyl)-6-(4-fluorobenzoyl)-1H-pyrrolo[2,3-d]pyrimidin-4(7H)-one] | 6000 ± 1000 nM | 800 ± 10 nM | – | – | – |
| O=C(c1ccccc1)c1[nH]c2[nH]c(=O)[nH]c(=O)c2c1-c1ccccc1 [Compound 2] | – | – | > 50000 nM | > 50000 nM | – |
| O=C(c1ccccc1)c1[nH]c2[nH]cnc(=O)c2c1-c1cccnc1 [Rig41, 6-Benzoyl-5-(pyridin-3-yl)-1H-pyrrolo[2,3-d]pyrimidin-4(7H)-one] | 888 ± 61 nM | 1260 ± 180 nM | – | – | – |
| CCOC(=O)c1nc(=O)c2c(-c3ccccc3)c(C(=O)c3ccccc3)[nH]c2[nH]1 [Compound 7] | – | – | > 50000 nM | > 50000 nM | – |
| O=C(c1ccccc1)c1[nH]c2[nH]cnc(=O)c2c1-c1cccc(O)c1 [Rig42, 6-Benzoyl-5-(3-hydroxyphenyl)-1H-pyrrolo[2,3-d]pyrimidin-4(7H)-one] | 860 ± 60 nM | 1100 ± 120 nM | – | – | – |
| CCCCc1nc(=O)c2c(-c3ccccc3)c(C(=O)c3ccccc3)[nH]c2[nH]1 [Compound 11, 6-Benzoyl-2-butyl-5-phenyl-1H-pyrrolo[2,3-d]pyrimidin-4(7H)-one] | – | – | 340 ± 10 nM | 230 ± 10 nM | – |
| O=C(c1ccc(Br)cc1)c1[nH]c2[nH]cnc(=O)c2c1-c1cc(Br)cc(Br)c1 [Rig14, 6-(4-Bromobenzoyl)-5-(3,5-dibromophenyl)-1H-pyrrolo[2,3-d]pyrimidin-4(7H)-one] | 2000 ± 1000 nM | 600 ± 100 nM | – | – | – |

Now from value to compound, other results behind:

| GI50 [1, 3] | GI50 [2, 4] | GI50 [1, 5] | GI50 [2, 6] | Structure (SMILES) | further results |
| --- | --- | --- | --- | --- | --- |
| 100 ± 70 nM | 60 ± 20 nM | – | – | O=C(c1ccccc1)c1[nH]c2[nH]cnc(=O)c2c1-c1cccc(Cl)c1 [Rig34, 6-Benzoyl-5-(3-chlorophenyl)-1H-pyrrolo[2,3-d]pyrimidin-4(7H)-one] | – |
| 4880 ± 70 nM | 2200 ± 300 nM | – | – | O=C(c1ccccc1)c1[nH]c2[nH]cnc(=O)c2c1-c1c(Cl)cccc1Cl [Rig40, 6-Benzoyl-5-(2,6-dichlorophenyl)-1H-pyrrolo[2,3-d]pyrimidin-4(7H)-one] | – |
| – | – | > 50000 nM | > 50000 nM | O=C(c1ccccc1)c1[nH]c2[nH]c(-c3ccccc3)nc(=O)c2c1-c1ccccc1 [Compound 3, 6-Benzoyl-2-phenyl-5-phenyl-1H-pyrrolo[2,3-d]pyrimidin-4(7H)-one] | – |
| – | – | 920 ± 110 nM | 1100 ± 100 nM | CCc1nc(=O)c2c(-c3ccccc3)c(C(=O)c3ccccc3)[nH]c2[nH]1 [Compound 12] | – |
| 7000 ± 1000 nM | 10000 ± 5000 nM | – | – | COc1cc(-c2c(C(=O)c3ccccc3)[nH]c3[nH]cnc(=O)c23)cc(Br)c1OC [Rig32, 6-Benzoyl-5-(3-bromo-4,5-dimethoxyphenyl)-1H-pyrrolo[2,3-d]pyrimidin-4(7H)-one] | – |
| 400 ± 10 nM | 310 ± 10 nM | – | – | O=C(c1ccc(OCc2ccccc2)cc1)c1[nH]c2[nH]cnc(=O)c2c1-c1cc(Br)cc(Br)c1 [Rig11, 6-(4-(Benzyloxy)benzoyl)-5-(3,5-dibromophenyl)-1H-pyrrolo[2,3-d]pyrimidin-4(7H)-one] | – |
| – | – | 3000 ± 200 nM | 3200 ± 200 nM | O=C(c1ccccc1)c1[nH]c2[nH]c(CF)nc(=O)c2c1-c1ccccc1 [Compound 14] | – |
| – | – | 5100 ± 200 nM | 4200 ± 500 nM | O=C(c1ccccc1)c1[nH]c2[nH]c(C(F)F)nc(=O)c2c1-c1ccccc1 [Compound 15, 6-Benzoyl-2-(difluoromethyl)-5-phenyl-1H-pyrrolo[2,3-d]pyrimidin-4(7H)-one] | – |
